In BigSolDB 2.1:

C[C@@H]1O[C@@H](OC[C@H]2O[C@@H](Oc3c(-c4ccc(O)c(O)c4)oc4cc(O)cc(O)c4c3=O)[C@H](O)[C@@H](O)[C@@H]2O)[C@H](O)[C@H](O)[C@H]1O
solubility (mole fraction)
Conditions	273.2 K	283.2 K	293.2 K	303.2 K	313.2 K	323.2 K
in ethanol	0.00348	0.00372	0.00427	0.00515	0.00592	0.00653
in water	2.97e-06	5.29e-06	5.87e-06	8.22e-06	1.02e-05	1.42e-05
